The results in this text go back to US20210163593A1, “TREATMENT OF MONOGENIC DISEASES WITH AN ANTI-CD45RC ANTIBODY” (INSERM (INSTITUT NATIONAL DE LA SANTÉ ET DE LA RECHERCHE …, priority 2017, published 2021).

Assay type in all cases: in vivo, rat
The test system of one data set is Dmd^mdx rats. Put plainly: Grip test of forelimb muscle strength in Dmd^mdx rats. The conditions noted are these: ip from week 2 of age, tested at 12 weeks. As to the method:
(§1) Wild-type (WT) or Dmd^mdx (KO) rats received intraperitoneal injections of a mouse anti-rat CD45RC monoclonal antibody (clone OX22, 2 mg/kg, every 3.5 days) from week 2 of age up to week 12.
(§2) Prednisolone was administered by intraperitoneal injections (0.5 mg/kg, 5 days a week) from week 2 of age up to week 12.
At week 12 of age treated rats were analyzed for muscle strength using a grip test.
Rats were placed with their forepaws on a grid and were gently pulled backward until they released their grip. A grip meter (Bio-GT3, BIOSEB, France), attached to a force transducer, measured the peak force generated.
To examine whether muscle function was improved by the anti-CD45RC monoclonal antibody treatment, muscle strength was analyzed by a grip test of forelimbs in WT and Dmd^mdx rats at 12 weeks of age after initiation of treatment at 2 weeks of age.

The subject of data set [1] is T CD8^+ CD45RC^high cells. The data set can be described thus: Flow cytometry of T cell subsets in muscle and spleen of WT and Dmd^mdx rats after treatment. As to the method:
Muscles of both hind limbs from WT or Dmd^mdx rats were excised and weighed. Muscles were minced and placed in gentle MACS C tubes with collagenase D in the presence of FCS 2%, 1 mM EDTA. Two runs of 30 minutes each in a gentle MACS dissociator were performed with new collagenase added between each run. Cells were suspended in 30 mL of PBS FCS 2%, 1 mM EDTA, were then applied to 15 mL of Hystopaque and centrifuged at 1000 g for 30 minutes without a break. Mononuclear cells were collected from the Hystopaque and PBS interface, washed and suspended in PBS FCS 2%, 1 mM EDTA.
Spleen was harvested, perfused with PBS and digested by collagenase D for 15 minutes at 37° C. Cells were suspended in PBS FCS 2%, 1 mM EDTA and mononuclear cells were recovered as explained above.
Mononuclear cells were stained with antibodies against the following antigens: CD45 (clone OX-1), T-cell receptor (TCR; clone R7/3), CD45RC (clone OX22), CD8 (clone OX8) and CD4 (W3/25), as well as with viability dyes eFluor506 or eFluor450, all from eBiosciences. Analysis was performed on a BD FACS Verse with FACSuite Software version 1.0.6. Post-acquisition analysis was performed with FlowJo software.
as §1, §2
On the technique in general: In flow cytometry, cells or beads pass a laser one at a time.

Data set [2] is described as follows: Weight / animal growth of Dmd^mdx rats during treatment. The note with it: ip from week 2 up to week 12 of age. As to the method:
FIG. 6 is a set of two graphs showing the weight of wild-type or Dmd^mdx rats during treatment using prednisolone or anti-CD45RC monoclonal antibody. Control littermate wild-type (WT) or Dmd^mdx (KO) rats received intraperitoneal injections of prednisolone or anti-CD45RC monoclonal antibody (OX22) from week 2 up to week 12 of age and weight was recorded at the indicated time points.
as §1, §2

In the case of `C[C@]12C=CC(=O)C=C1CC[C@@H]1[C@@H]2[C@@H](O)C[C@@]2(C)[C@H]1CC[C@]2(O)C(=O)CO` [prednisolone], in the data set on Dmd^mdx rats, the “muscle strength (grip test) in treated Dmd^mdx rats compared with WT littermate controls” value was “levels identical to those of WT” and the “muscle strength (grip test) in treated vs. untreated Dmd^mdx rats” value was “increased”. Moreover, the “T CD8^+ CD45RC^high cells” value in data set [1] (ip from week 2 of age, analyzed at 12 weeks, muscle of Dmd^mdx rats and spleen of WT and Dmd^mdx rats) is given as “specific decrease”. Besides, the “CD4^+CD45RC^high cells” value in data set [1] (muscle and spleen of Dmd^mdx rats and spleen of WT rats, data not shown) is recorded as “numerically reduced”. Further, the “CD8^+CD45RC^int/neg cells” value in data set [1] (muscle and spleen of Dmd^mdx rats and spleen of WT rats, week 12) is reported as “maintained”. For the same molecule, the “animal growth (weight)” value in data set [2] was “severe reduction”.
